Measurements reported in the supplement of paper PMC5908809.

Key:
[1] = test system: normal NK cells expanded with K562-aAPC; experiment: percent inhibition of viability; higher = more inhibition; conditions: 72 h, IL-2 2.5 ng/mL
Protocol: (§1)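 Drug sensitivity and resistance testing on K562-aAPC-expanded normal NK cells: 5 concentrations (10-fold steps over a 10,000-fold range), 72 h at 37 °C, viability by CellTiter-Glo normalised to DMSO and benzethonium chloride controls; DSS from the fitted curve.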

[2] = test system: DERL-7 (IL-2 2.5 ng/mL); experiment: as above; conditions: 72 h
[3] = test system: IMC-1 (IL-2 20 ng/mL); experiment: as above; conditions: 72 h
[4] = test system: KAI3 (IL-2 2.5 ng/mL); experiment: as above; conditions: 72 h
[5] = test system: KHYG-1 (IL-2 2.5 ng/mL); experiment: as above; conditions: 72 h
[6] = test system: NK-92 (IL-2 2.5 ng/mL); experiment: as above; conditions: 72 h
[7] = test system: NK-YS (IL-2 2.5 ng/mL); experiment: as above; conditions: 72 h
[8] = test system: NKL (IL-2 2.5 ng/mL); experiment: as above; conditions: 72 h
[9] = test system: SNK-6 (IL-2 2.5 ng/mL); experiment: as above; conditions: 72 h
[10] = test system: YT (IL-2 2.5 ng/mL); experiment: as above; conditions: 72 h
[11] = test system: normal primary NK cells, pool 1 (3 donors) (IL-2 2.5 ng/mL); experiment: as above; conditions: 72 h
[12] = test system: normal primary NK cells, pool 1 (3 donors), resting (IL-2 0 ng/mL); experiment: as above; conditions: 72 h
[13] = test system: normal primary NK cells, pool 2 (3 donors) (IL-2 2.5 ng/mL); experiment: as above; conditions: 72 h
[14] = test system: normal primary NK cells, pool 3 (3 donors) (IL-2 2.5 ng/mL); experiment: as above; conditions: 72 h
[15] = test system: normal NK cells expanded with K562-aAPC; experiment: drug sensitivity score (DSS) (DSS units); higher = more sensitive; extreme values may be limits of the assay; conditions: 72 h; IL-2 2.5 ng/mL
Protocol: as §1

[16] = test system: DERL-7 (IL-2 2.5 ng/mL); experiment: as above; conditions: 72 h
[17] = test system: IMC-1 (IL-2 20 ng/mL); experiment: as above; conditions: 72 h
[18] = test system: KAI3 (IL-2 2.5 ng/mL); experiment: as above; conditions: 72 h
[19] = test system: KHYG-1 (IL-2 2.5 ng/mL); experiment: as above; conditions: 72 h
[20] = test system: NK-92 (IL-2 2.5 ng/mL); experiment: as above; conditions: 72 h
[21] = test system: NK-YS (IL-2 2.5 ng/mL); experiment: as above; conditions: 72 h
[22] = test system: NKL (IL-2 2.5 ng/mL); experiment: as above; conditions: 72 h
[23] = test system: SNK-6 (IL-2 2.5 ng/mL); experiment: as above; conditions: 72 h
[24] = test system: YT (IL-2 2.5 ng/mL); experiment: as above; conditions: 72 h
[25] = test system: normal primary NK cells, pool 1 (3 donors) (IL-2 2.5 ng/mL); experiment: as above; conditions: 72 h
[26] = test system: normal primary NK cells, pool 1 (3 donors), resting (IL-2 0 ng/mL); experiment: as above; conditions: 72 h
[27] = test system: normal primary NK cells, pool 2 (3 donors) (IL-2 2.5 ng/mL); experiment: as above; conditions: 72 h
[28] = test system: normal primary NK cells, pool 3 (3 donors) (IL-2 2.5 ng/mL); experiment: as above; conditions: 72 h

CNC(=O)c1ccc2cc([C@@]3(O)CCn4cncc43)ccc2c1 [Orteronel] (max concentration tested 10000 nM)
percent inhibition of viability [%]
Conditions	1 nM	10 nM	100 nM	1000 nM	10000 nM
[1]	-5.71	-7.96	-3.03	-3.58	-6.05
[2]	-6.34	0.71	-1.69	-1	-1.19
[3]	-2.16	2.99	-1.56	2.85	-4.82
[4]	-7.13	-0.59	-2.47	-4.32	-11.3
[5]	-5.73	-2.14	-3.55	0.58	-8.03
[6]	-11.2	0.34	-4.73	4.66	-21.7
[7]	-3.4	-3.35	-1.88	-0.21	-5.45
[8]	-5	-13	-12.1	0.4	-4.85
[9]	12.8	29.5	-7.71	18.8	-9.24
[10]	-1.09	-0.82	-3	6.56	-4.8
[11]	-3.93	-7.55	-2.24	5.97	4.41
[12]	-13	-1.84	15.9	8.47	14.4
[13]	-7.25	-8.3	-5.11	-0.18	-0.97
[14]	-9.86	-10.5	-4.17	-8.67	-0.69

Conditions	drug sensitivity score
[15]	0
[16]	0
[17]	0
[18]	0
[19]	0
[20]	0
[21]	0
[22]	0
[23]	0
[24]	0
[25]	0
[26]	2.88
[27]	0
[28]	0

O=C(Nc1cc(Cl)cc2c1[nH]c1cnccc12)c1cccnc1 [PS-1145] (max concentration tested 25000 nM)
percent inhibition of viability [%]
Conditions	2.5 nM	25 nM	250 nM	2500 nM	25000 nM
[1]	2.02	0.77	-1.48	-6.16	6.75
[2]	-3.2	-13	1.95	-4.1	-8.03
[3]	-6.22	-1.55	3.4	7.36	16
[4]	5.94	6.21	4.4	48.5	75
[5]	5.69	5.58	12.9	7.66	16.4
[6]	-0.17	-20.2	-5.95	4.6	23.6
[7]	0.26	0.9	2.11	7.41	11.3
[8]	12.7	11.1	10.4	9.5	20.8
[9]	-11.2	3.19	-6.13	14.1	16.6
[10]	3.94	1.19	1.07	4.91	13.9
[11]	5.83	-8.31	15.4	7.93	11.5
[12]	-26.1	-30.6	0.68	-5.12	-6.42
[13]	-19.7	-10.7	3.18	6.82	10.1
[14]	-2.28	-6.49	7.93	14.6	10.4

Conditions	drug sensitivity score
[15]	0
[16]	0
[17]	0.51
[18]	10.1
[19]	0.87
[20]	1.52
[21]	0.04
[22]	0
[23]	1.45
[24]	0.38
[25]	0.64
[26]	0
[27]	0
[28]	1.86
